Measured values as given in patent US8735414B2 (priority 2009, dated 2014).

Legend:
[1] = test system: bicistronic HCV replicon (replicon RNA, GenBank Accession No. AJ242654); experiment: HCV Replicon Assay; assay type: cell-based; conditions: Hepatitis C virus, 72 h, read-out: Replicon IC50

| SMILES | melting point [°C] | IC50 [1] [µM] |
| --- | --- | --- |
| Cc1cc(NS(=O)(=O)C(C)(C)C)ncc1-c1c(C(N)=O)c2cc(F)c(OC(F)F)cc2n1[C@H](C)C1CC1 [compound 1087, 2-{6-[(tert-butylsulfonyl)amino]-4-methylpyridin-3-yl}-1-[(1R)-1-cyclopropylethyl]-6-(difluoromethoxy)-5-fluoro-1H-indole-3-carboxamide] | 250 to 254 | < 0.5 |
| CCn1c(-c2ccc(N(CCO)S(=O)(=O)C3CC3)nc2)c(C#N)c2ccc(OC(C)C)cc21 [compound 293, N-{5-[3-cyano-1-ethyl-6-(propan-2-yloxy)-1H-indol-2-yl]pyridin-2-yl}-N-(2-hydroxyethyl)cyclopropanesulfonamide] | 212 to 214 | 0.5 to 2 |
| CC(C)(NS(=O)(=O)c1ccc(-c2c(C#N)c3c(F)cc(C4CC4)cc3n2-c2ncccn2)nc1)C(F)(F)F [compound 1098, 6-[3-cyano-6-cyclopropyl-4-fluoro-1-(pyrimidin-2-yl)-1H-indol-2-yl]-N-(1,1,1-trifluoro-2-methylpropan-2-yl)pyridine-3-sulfonamide] | 198 to 200 | 0.5 to 2 |
| Cc1ccc2c(c1)c(C#N)c(-c1ncc(S(=O)(=O)NC(C)C)cn1)n2C1CCCCC1 [compound 200, 2-(3-cyano-1-cyclohexyl-5-methyl-1H-indol-2-yl)-N-(propan-2-yl)pyrimidine-5-sulfonamide] | 183 to 188 | 0.5 to 2 |
| C[C@H](NS(=O)(=O)c1ccc(-c2c(C(N)=O)c3cc(F)c(OC(F)F)cc3n2C2CCCC2)nc1)C(F)(F)F [compound 806, 1-cyclopentyl-6-(difluoromethoxy)-5-fluoro-2-(5-{[(2S)-1,1,1-trifluoropropan-2-yl]sulfamoyl}pyridin-2-yl)-1H-indole-3-carboxamide] | 220 to 222 | < 0.5 |
| Cc1c(F)cc2c(c1F)c(C#N)c(-c1ccc(S(=O)(=O)N[C@@H](C)C(F)(F)F)cn1)n2C1CCCC1 [compound 559, 6-(3-cyano-1-cyclopentyl-4,6-difluoro-5-methyl-1H-indol-2-yl)-N-[(2S)-1,1,1-trifluoropropan-2-yl]pyridine-3-sulfonamide] | 218 to 224 | < 0.5 |
| CC(C)(C)NS(=O)(=O)c1ccc(-c2c(C#N)c3cc(F)ccc3n2C2CCC2)nc1 [compound 9, N-tert-butyl-6-(3-cyano-1-cyclobutyl-5-fluoro-1H-indol-2-yl)pyridine-3-sulfonamide] | 181 to 185 | < 0.5 |
| CC(C)(NS(=O)(=O)c1ccc(-c2c(C#N)c3cc(F)c(C4CC4)cc3n2C2CCCC2)nc1)C(F)(F)F [compound 831, 6-(3-cyano-1-cyclopentyl-6-cyclopropyl-5-fluoro-1H-indol-2-yl)-N-(1,1,1-trifluoro-2-methylpropan-2-yl)pyridine-3-sulfonamide] | 183 to 185 | < 0.5 |
| CCCn1c(-c2ccc(S(=O)(=O)NC(CF)CF)cn2)c(C#N)c2ccc(OC(F)F)cc21 [compound 45, 6-[3-cyano-6-(difluoromethoxy)-1-propyl-1H-indol-2-yl]-N-(1,3-difluoropropan-2-yl)pyridine-3-sulfonamide] | 156 to 158 | < 0.5 |
| CC(C)(CF)NS(=O)(=O)c1ccc(-c2c(C#N)c3ccc(OC(F)F)cc3n2C2CCCC2)nc1 [compound 67, 6-[3-cyano-1-cyclopentyl-6-(difluoromethoxy)-1H-indol-2-yl]-N-(1-fluoro-2-methylpropan-2-yl)pyridine-3-sulfonamide] | 224 to 229 | < 0.5 |
| Cc1ccc2c(C#N)c(-c3ccc(S(=O)(=O)NC(C)(C)C(F)(F)F)cn3)n(-c3ncccn3)c2c1 [compound 689, 6-[3-cyano-6-methyl-1-(pyrimidin-2-yl)-1H-indol-2-yl]-N-(1,1,1-trifluoro-2-methylpropan-2-yl)pyridine-3-sulfonamide] | 202 to 205 | 0.5 to 2 |
| Cc1nc(NS(=O)(=O)C(C)(C)C)ccc1-c1c(C(N)=O)c2cc(F)c(OC(F)F)cc2n1[C@@H](C)C1CC1 [compound 1096, 2-{6-[(tert-butylsulfonyl)amino]-2-methylpyridin-3-yl}-1-[(1S)-1-cyclopropylethyl]-6-(difluoromethoxy)-5-fluoro-1H-indole-3-carboxamide] | 147 to 151 | < 0.5 |
| CCc1ccc2c(C#N)c(-c3ccc(S(=O)(=O)NC(C)(C)C(F)(F)F)cn3)n(C3CCC3)c2c1 [compound 481, 6-(3-cyano-1-cyclobutyl-6-ethyl-1H-indol-2-yl)-N-(1,1,1-trifluoro-2-methylpropan-2-yl)pyridine-3-sulfonamide] | 160 to 165 | < 0.5 |
| Cc1cc2c(cc1F)c(C(=O)NC(C)C)c(-c1ccc(S(=O)(=O)N[C@@H](C)C(F)(F)F)cn1)n2C1CCCC1 [compound 763, 1-cyclopentyl-5-fluoro-6-methyl-N-(propan-2-yl)-2-(5-{[(2S)-1,1,1-trifluoropropan-2-yl]sulfamoyl}pyridin-2-yl)-1H-indole-3-carboxamide] | 234 to 236 | 0.5 to 2 |
| N#Cc1c(-c2ccc(S(=O)(=O)NC(CF)CF)cn2)n(C2CCCCC2)c2cc(F)ccc12 [compound 234, 6-(3-cyano-1-cyclohexyl-6-fluoro-1H-indol-2-yl)-N-(1,3-difluoropropan-2-yl)pyridine-3-sulfonamide] | 193 to 199 | < 0.5 |
| C[C@@H](NS(=O)(=O)c1ccc(-c2c(C#N)c3ccc(OC(F)F)cc3n2-c2ccccc2)nc1)C(F)(F)F [compound 554, 6-[3-cyano-6-(difluoromethoxy)-1-phenyl-1H-indol-2-yl]-N-[(2R)-1,1,1-trifluoropropan-2-yl]pyridine-3-sulfonamide] | 212 to 213 | < 0.5 |
| Cc1cc2c(cc1O)c(C#N)c(-c1ccc(S(=O)(=O)N[C@H](C)C(F)(F)F)cn1)n2C1CCC1 [compound 807, 6-(3-cyano-1-cyclobutyl-5-hydroxy-6-methyl-1H-indol-2-yl)-N-[(2R)-1,1,1-trifluoropropan-2-yl]pyridine-3-sulfonamide] | 209 to 210 | < 0.5 |
| C[C@H](NS(=O)(=O)c1ccc(-c2c(C#N)c3ccc(C(F)(F)F)cc3n2-c2ncccn2)nc1)C(F)(F)F [compound 950, 6-[3-cyano-1-(pyrimidin-2-yl)-6-(trifluoromethyl)-1H-indol-2-yl]-N-[(2S)-1,1,1-trifluoropropan-2-yl]pyridine-3-sulfonamide] | 206 to 210 | < 0.5 |
| CC(C)Cn1c(-c2ccc(S(=O)(=O)N[C@@H](C)C(F)(F)F)cn2)c(C#N)c2cc(F)c(OC(F)F)cc21 [compound 937, 6-[3-cyano-6-(difluoromethoxy)-5-fluoro-1-(2-methylpropyl)-1H-indol-2-yl]-N-[(2S)-1,1,1-trifluoropropan-2-yl]pyridine-3-sulfonamide] | 130 to 134 | < 0.5 |
| Cc1ccc2c(C#N)c(-c3ncc(S(=O)(=O)NC(CF)CF)cn3)n(-c3ccccc3)c2c1 [compound 260, 2-(3-cyano-6-methyl-1-phenyl-1H-indol-2-yl)-N-(1,3-difluoropropan-2-yl)pyrimidine-5-sulfonamide] | 169 to 171 | < 0.5 |
| C[C@H](NS(=O)(=O)c1ccc(-c2c(C#N)c3ccc(OC(F)(F)F)cc3n2C2CCC2)nc1)C(F)(F)F [compound 370, 6-[3-cyano-1-cyclobutyl-6-(trifluoromethoxy)-1H-indol-2-yl]-N-[(2S)-1,1,1-trifluoropropan-2-yl]pyridine-3-sulfonamide] | 165 to 175 | < 0.5 |
| CCn1c(-c2ccc(NS(=O)(=O)C(C)C)cn2)c(C#N)c2ccc(OC(C)C)cc21 [compound 286, N-{6-[3-cyano-1-ethyl-6-(propan-2-yloxy)-1H-indol-2-yl]pyridin-3-yl}propane-2-sulfonamide] | 180 to 185 | 0.5 to 2 |
| CCc1cc2c(cc1F)c(C#N)c(-c1ccc(S(=O)(=O)NC(C)(C)C)cn1)n2C1CCC1 [compound 764, N-tert-butyl-6-(3-cyano-1-cyclobutyl-6-ethyl-5-fluoro-1H-indol-2-yl)pyridine-3-sulfonamide] | 186 to 188 | < 0.5 |
| C[C@H](NS(=O)(=O)c1ccc(-c2c(C#N)c3cc(F)c(C4CC4)cc3n2-c2ccc(F)cn2)nc1)C(F)(F)F [compound 818, 6-[3-cyano-6-cyclopropyl-5-fluoro-1-(5-fluoropyridin-2-yl)-1H-indol-2-yl]-N-[(2S)-1,1,1-trifluoropropan-2-yl]pyridine-3-sulfonamide] | 240 to 242 | < 0.5 |
| CCc1cc2c(cc1F)c(C#N)c(-c1ccc(S(=O)(=O)N[C@@H](C)C(F)(F)F)cn1)n2-c1cccnn1 [compound 975, 6-[3-cyano-6-ethyl-5-fluoro-1-(pyridazin-3-yl)-1H-indol-2-yl]-N-[(2S)-1,1,1-trifluoropropan-2-yl]pyridine-3-sulfonamide] | 240 to 247 | < 0.5 |
| CNC(=O)c1c(-c2ncc(S(=O)(=O)NC(C)(C)C)cn2)n(C2CCC2)c2cc(C)c(F)cc12 [compound 802, 2-[5-(tert-butylsulfamoyl)pyrimidin-2-yl]-1-cyclobutyl-5-fluoro-N,6-dimethyl-1H-indole-3-carboxamide] | 211 to 213 | < 0.5 |
| CCc1cc2c(cc1F)c(C#N)c(-c1ccc(S(=O)(=O)N[C@@H](C)C(F)(F)F)cn1)n2-c1ccc(C#N)cc1 [compound 1007, 6-[3-cyano-1-(4-cyanophenyl)-6-ethyl-5-fluoro-1H-indol-2-yl]-N-[(2S)-1,1,1-trifluoropropan-2-yl]pyridine-3-sulfonamide] | 288 to 293 | < 0.5 |
| Cc1cc2c(C(N)=O)c(-c3ccc(S(=O)(=O)N[C@@H](C)C(F)(F)F)cn3)n(-c3ncccn3)c2cc1F [compound 918, 6-fluoro-5-methyl-1-(pyrimidin-2-yl)-2-(5-{[(2S)-1,1,1-trifluoropropan-2-yl]sulfamoyl}pyridin-2-yl)-1H-indole-3-carboxamide] | 245 to 249 | 2 to 5 |
